# Data taken from patent US11447566B2, “Anti-tissue factor antibodies, antibody-drug conjugates, and related methods” (Iconic Therapeutics, Inc., priority 2018, dated 2022).
# Square brackets hold non-standard residues; d marks the D form. Peptide text beside a SMILES is read from it. * marks the point of attachment. Dolaproine = CO[C@@H]([C@@H]1CCCN1)[C@@H](C)C(=O)O; Dil = CC[C@H](C)[C@H](NC)[C@@H](CC(=O)O)OC; X1 = C[C@@H](N*)[C@@H](O)c1ccccc1; NMeV = CN[C@H](C(=O)O)C(C)C
# Key:
# [1] = tested on: human thrombin generation (relipidated TF, normal pooled plasma); assay: Thrombin generation assay (TGA); assay type: biochemical; conditions: 100 nM antibody, Example 18
# Experimental: (§1) The TGA assay was performed using the calibrated-automated-thrombogram (CAT) instrument manufactured and distributed by STAGO. The test method design was equivalent to a standard CAT assay measurement, except that the plasma source was NPP in citrate/CTI. […] Relipidated TF was added to a 96-well assay plate, followed by addition of the antibody/NPP mixture. After a 10-min incubation or directly after combining the relipidated TF with antibody/NPP, thrombin generation was initiated by the addition of calcium and the thrombin substrate. The STAGO software was used to report the following parameters: Peak IIa (highest thrombin concentration generated [nM]); Lag Time (time to IIa generation [min]); ETP (endogenous thrombin potential, area under the curve [nM×min]); and ttPeak (time to Peak IIa [min]).
# as §1, with “was normal pooled plasma (NPP)” for “was NPP”, “in citrate supplemented with corn trypsin inhibitor (citrate/CTI).” for “in citrate/CTI.”
# TGA assay was performed using the calibrated-automated-thrombogram (CAT) instrument manufactured and distributed by STAGO (Diagnostica Stago SAS, Asnieres sur Seine, France). […] The anti-TF antibodies were titrated at 0, 10, 50 and 100 nM and mixed with NPP in citrate/CTI. Relipidated TF was added to a 96-well assay plate, followed by addition of the antibody/NPP mixture. After a 10-min incubation or directly after combining the relipidated TF with antibody/NPP, thrombin generation was initiated by the addition of calcium and the thrombin substrate. The STAGO software was used to report the following parameters: Peak IIa (highest thrombin concentration generated on the thrombin generation curve [nM]); Lag Time (time from assay start to the moment 10 nM of thrombin is formed [min]); ETP (endogenous thrombin potential, area under the curve [nM×min]); and ttPeak (time from assay start to Peak IIa [min]). […] As used herein, the term “thrombin generation assay” (TGA) refers to the TGA used in this example.
# HUVECs = assay: G2/M arrest (phospho-Histone H3), HUVECs; assay type: cell-based, human; conditions: 24 h treatment, with or without inflammatory cytokines
# Experimental: (§2) To further understand the resistance of endothelial cells to anti-TF ADCs, cell cycle progression was evaluated 24 h after addition of the cytokines and TF-specific ADCs. Arrest at the G2/M phase of the cell cycle was analyzed as previously described in Theunissen et al, Methods Enzymol, 2006, 409:251-284. Briefly, low-passage HUVECs (Lifeline Cell Technologies, Frederick, Md., USA), propagated in VascuLife VEGF-Mv Endothelial media (Lifeline Cell Technologies), and HCT-116 cells were seeded on 12-well plates. The next day, media was removed and replaced with fresh media (no cytokines) or media containing 5 ng/mL IL1-beta, 25 ng/mL TNF-alpha and 50 ng/mL VEGF (with cytokines). A titration of MMAE-linked ADCs or free MMAE was added to the cells. After 24 h of treatment, cells were fixed in ice-cold 70% ethanol. Subsequently, the cells were washed with flow cytometry buffer (PBS, 1% FBS, 0.1% Triton) and stained for 1 h with a 1:100 dilution of phospho-Histone H3 (Ser10) (D2C8 PE Conjugate, Cell Signaling Technology). After 2 washes, the cells were treated for 20 min with 100 μg/mL PureLink RNAse A (ThermoFisher Scientific), followed by the addition of the viability dye TO-PRO-3 Iodide (ThermoFisher Scientific). 40,000 events were collected on a Novocyte flow cytometer. In the Flowjo data analysis software cell doublets and aneuploid cells were excluded. […]
# HCT-116 cells = assay: G2/M arrest (phospho-Histone H3), HCT-116 cells; assay type: cell-based, human; conditions: 24 h treatment
# Experimental: as §2
# [2] = tested on: gastric adenocarcinoma PDX; assay: Gastric adenocarcinoma patient-derived xenograft model; assay type: in vivo, athymic nude mice; conditions: end of the study (day 46)
# Experimental: TF-positive PDX models were performed in athymic nude mice (Envigo, Indianapolis, Ind.) to evaluate the efficacy of the ADCs in vivo. The animals' care was in accordance with institutional guidelines. Study animals were implanted unilaterally on the left flank with tumor fragments.
# Animals were removed from study and euthanized once tumor size reached 1200 mm^3 or skin ulceration was evident. In addition, the MTV curve for the treatment group in question was no longer shown once an animal was removed from study due to size. TGI and statistical analyses were conducted in the same manner as for the CDX studies.
compound,measurement,setting,value
"10H10: previously described TF-specific antibody (Versteeg et al., 2008; Teplyakov et al., 2017) [reference compound]",reduction of the peak IIa concentration,[1]; 10 min antibody pre-incubation,48%
same,reduction of the peak IIa concentration,[1]; without antibody pre-incubation,34%
"CC[C@H](C)[C@@H]([C@@H](CC(=O)N1CCC[C@H]1[C@H](OC)[C@@H](C)C(=O)N[C@H](C)[C@@H](O)c1ccccc1)OC)N(C)C(=O)[C@@H](NC(=O)[C@@H](NC)C(C)C)C(C)C [MMAE, monomethyl auristatin E] (H-[NMeV]V[Dil][Dolaproine]-X1)","G2/M arrest, pH3-positive HUVECs",HUVECs,increase the phosphorylation of histone H3 to a similar extent
same,"G2/M arrest, pH3-positive HCT-116 cells",HCT-116 cells,increase the phosphorylation of histone H3 to a similar extent
TF-011 ADC,complete responders,[2],1 animals
same,tumor-free survivors,[2],5 animals
